Results taken from patent publication US5750531A, “Pyrimidine derivatives and processes for the preparation thereof” (Yuhan Corporation, priority 1994, dated 1998).
Counter-ions that a name gives are not always drawn.

Columns and labels:
[1] = molecular target: proton pump(H^+ /K^+ ATPase); test: Inhibition of proton pump(H^+ /K^+ ATPase) activity; assay type: biochemical; details: pH 6.0, 37° C., 30 minutes preincubation and 30 minutes reaction; read-out: IC50 Test compound
Protocol: Test 1: Inhibition of proton pump(H^+ /K^+ ATPase) activity
A proton pump enzyme source was prepared by the same method as in Experiment 1-1 of WO 94/14795. Further, the inhibitory effect of proton pump activity was measured by the same method as in Experiment 1-2 of WO 94/14795.
Namely, the proton pump activity stimulated by Mg^++ was used as a negative comparative group, and the activity stimulated by Mg^++ and K^+ was used as a positive comparative group. The comparative compound was omeprazole.
Test tubes were divided into 4 groups: Group 1 as negative comparative group(n=3), Group 2 as positive comparative group(n=3), Group 3(n=5×2) to be administered with the compound of the present invention and Group 4(n=5×2) to be administered with the comparative compound.
The inhibitory effects of Groups 3 and 4 on proton pump activity were measured by employing the compound prepared in Example and omeperazole, respectively, each of which was dissolved in dimethylsulfoxide at 5 different concentrations.
To each of Groups 1, 2, 3 and 4 were added 100 μl of magnesium chloride(40 mM) dissolved in 40 mM Tris-HCl buffer(pH 6.0) and 100μ of the enzyme source. Then, 50μ of potassium chloride(50 mM) and 50 μl of ammonium chloride(6 mM) dissolved in 40 mM Tris-HCl buffer(pH 6.0) were added to all groups except for Group 1.
10 μl of dimethylsulfoxide was added to each of Groups 1 and 2; and to Group 3 was added 10 μl of the solution in which the compound prepared in Example was dissolved in dimethylsulfoxide at 5 different concentrations(n=5×2). To Group 4, 10 μl of the solution prepared by dissolving omeprazole in dimethylsulfoxide at 5 different concentrations(37.6, 21.4, 12.2, 7.0 and 4.0 μM) was added(n=5×2). 40 mM Tris-HCl buffer(pH=6.0) was added thereto so as to make the total volume 400 μl.
Thereafter, the test tubes of each Group were placed at 37° C. for 30 minutes for the preincubation. 100 μl of ATP solution (6.6 mM) was added until the reaction volume became 500 μl. After the reaction was carried out at 37° C. for 30 minutes, 25% cold trichloroacetic acid was added to terminate the enzyme reaction. The released inorganic phosphate was measured by an automatic analyzer(Express 550, Corning).
The difference between Group 1 and Group 2 represents the proton pump activity activated by K^+ only. The inhibition percentages of Groups 3 and 4 were calculated from Litchfield-wilcoxon equation[see, e.g., J. pharmacol. Exp. Ther., 96, 99(1949)]. The concentrations of the test compounds which inhibit 50% of the proton pump activity are represented as IC50 in Table 1.

gastric secretion = test: Inhibition of gastric secretion (pylorus ligation, Shay method); assay type: in vivo, Male Sprague-Dawley rats; details: 20 mg/kg intraduodenally, 5 hours; for Rel. Conc.: acid concentration relative to omeprazole; for Relative Acid Output: acid output relative to omeprazole; for Rel. Vol.: gastric juice volume relative to omeprazole
Protocol: Inhibition of gastric secretion […] Under ether anesthesia, the abdomen was incised, and the pylorus was ligated. […] After closing the abdominal cavity, the rats were placed for 5 hours and then killed by cervical dislocation. The stomach was extracted to obtain gastric juice. The gastric juice was centrifuged at 1,000 g to remove precipitates. The amount and acidity of the gastric juice were measured. Relative volumes, relative acid concentrations and relative acid outputs of the test compounds were calculated from equations(I), (II) and (III) and the results are shown in Table 2. […] Group 3) (II) […] (III)

Compound | IC50 [1] | Rel. Conc. (gastric secretion) | Relative Acid Output (gastric secretion) | Rel. Vol. (gastric secretion)
Cc1nc(Nc2ccc(F)cc2)nc(N2CCc3ccccc3C2C)c1C.Cl (centres unmarked) [Example 15, 5,6-dimethyl-2-(4-fluorophenylamino)-4-(1-methyl-1,2,3,4-tetrahydroisoquinolin-2-yl)pyrimidine hydrochloride] | 1600 nM | 1.06 | 0.99 | 0.8
Cc1nc(Nc2ccc(F)cc2)nc(N2CCc3ccccc3[C@@H]2C)c1C.Cl [Example 17, (S)-5,6-dimethyl-2-(4-fluorophenylamino)-4-(1-methyl-1,2,3,4-tetrahydroisoquinolin-2-yl)pyrimidine hydrochloride] | 1800 nM | 0.97 | 0.89 | 0.82
Cc1nc(N(C)c2ccccc2)nc(N2CCc3ccccc3C2C)c1C.Cl (centres unmarked) [Example 18, 5,6-dimethyl-2-(N-methylphenylamino)-4-(1-methyl-1,2,3,4-tetrahydroisoquinolin-2-yl)pyrimidine hydrochloride] | 4200 nM | 1.82 | 1.39 | 1.72
Cc1nc(N(C)c2ccccc2)nc(N2CCc3ccccc3[C@H]2C)c1C.Cl [Example 19, (R)-5,6-Dimethyl-2-(N-methylphenylamino)-4-(1-methyl-1,2,3,4-tetrahydroisoquinolin-2-yl)pyrimidine hydrochloride] | 3900 nM | 1.86 | 1.43 | 1.8
Cc1nc(N(C)c2ccccc2)nc(N2CCc3ccccc3[C@@H]2C)c1C.Cl [Example 20, (S)-5,6-dimethyl-2-(N-methylphenylamino)-4-(1-methyl-1,2,3,4-tetrahydroisoquinolin-2-yl)pyrimidine hydrochloride] | 4400 nM | 1.75 | 1.28 | 1.66
Cc1nc(Nc2ccccc2)nc(N2CCc3ccccc3[C@@H]2C)c1C [Example 23, hydrochloride] | 2000 nM | 0.78 | 0.88 | 0.92

These reach a lower IC50 [1]. Values come first.

IC50 [1] | Compound | Rel. Conc. (gastric secretion) | Relative Acid Output (gastric secretion) | Rel. Vol. (gastric secretion)
700 nM | Cc1cc(F)ccc1Nc1nc(C)c(C)c(N2CCc3ccccc3[C@@H]2C)n1.Cl [Example 14, (S)-5,6-dimethyl-2-(2-methyl-4-fluorophenylamino)-4-(1-methyl-1,2,3,4-tetrahydroisoquinolin-2-yl)pyrimidine hydrochloride] | 0.3 | 0.72 | 0.53
1500 nM | Cc1nc(Nc2ccc(F)cc2)nc(N2CCc3ccccc3[C@H]2C)c1C.Cl [Example 16, (R)-5,6-dimethyl-2-(4-fluorophenylamino)-4-(1-methyl-1,2,3,4-tetrahydroisoquinolin-2-yl)pyrimidine hydrochloride] | 1.24 | 1.13 | 0.96
1500 nM | Cc1nc(Nc2ccccc2)nc(N2CCc3ccccc3C2C)c1C.Cl (centres unmarked) [Example 21, 5,6-dimethyl-2-(phenylamino)-4-(1-methyl-1,2,3,4-tetrahydroisoquinolin-2-yl)pyrimidine hydrochloride] | 0.88 | 0.97 | 1.06
1400 nM | Cc1nc(Nc2ccccc2)nc(N2CCc3ccccc3[C@H]2C)c1C [Example 22, (R)-5,6-Dimethyl-2-(4-phenylamino)-4-(1-methyl-1,2,3,4-tetrahydroisoquinolin-2-yl)pyrimidine hydrochloride] | 0.8 | 0.90 | 0.99
600 nM | Cc1ccccc1Nc1nc(C)c(C)c(N2CCc3ccccc3C2C)n1.Cl (centres unmarked) [Example 24, 5,6-Dimethyl-2-(2-methylphenylamino)-4-(1-methyl-1,2,3,4-tetrahydroisoquinolin-2-yl)pyrimidine hydrochloride] | 1.03 | 1.01 | 1
